Some results are limits rather than exact numbers.

Assay [1] concerns the target human Lck kinase (UniProt P06239). Nature of the assay: Lck inhibition assay (radioactivity-based assay A or spectrophotometric assay B). The following applies: poly Glu-Tyr substrate; assay A or B not specified; read-out: Lck Activity (Ki class). It is filed as biochemical. How it is done: The compounds were evaluated as inhibitors of human Lck kinase using either a radioactivity-based assay or spectrophotometric assay.
(§1) The compounds were assayed as inhibitors of full length bovine thymus Lck kinase (from Upstate Biotechnology, cat. no. 14-106) expressed and purified from baculo viral cells. Lck kinase activity was monitored by following the incorporation of ^33P from ATP into the tyrosine of a random poly Glu-Tyr polymer substrate of composition, Glu:Tyr=4:1 (Sigma, cat. no. P-0275). The following were the final concentrations of the assay components: 0.025 M HEPES, pH 7.6, 10 mM MgCl2, 2 mM DTT, 0.25 mg/ml BSA, 10 μM ATP (1-2 μCi ^33P-ATP per reaction), 5 mg/ml poly Glu-Tyr, and 1-2 units of recombinant human Src kinase. In a typical assay, all the reaction components with the exception of ATP were pre-mixed and aliquoted into assay plate wells. Inhibitors dissolved in DMSO were added to the wells to give a final DMSO concentration of 2.5%. The assay plate was incubated at 30° C. for 10 minutes before initiating the reaction with ^33P-ATP. After 20 min of reaction, the reactions were quenched with 150 μl of 10% trichloroacetic acid (TCA) containing 20 mM Na3PO4. The quenched samples were then transferred to a 96-well filter plate (Whatman, UNI-Filter GF/F Glass Fiber Filter, cat no. 7700-3310) installed on a filter plate vacuum manifold. Filter plates were washed four times with 10% TCA containing 20 mM Na3PO4 and then 4 times with methanol. 200 μl of scintillation fluid was then added to each well. The plates were sealed and the amount of radioactivity associated with the filters was quantified on a TopCount scintillation counter. The radioactivity incorporated was plotted as a function of the inhibitor concentration. The data was fitted to a competitive inhibition kinetics model to get the Ki for the compound.
The ADP produced from ATP by the human recombinant Lck kinase-catalyzed phosphorylation of poly Glu-Tyr substrate was quanitified using a coupled enzyme assay (Fox et al (1998) Protein Sci 7, 2249). In this assay one molecule of NADH is oxidised to NAD for every molecule of ADP produced in the kinase reaction. The disappearance of NADH can be conveniently followed at 340 nm.
The following were the final concentrations of the assay components: 0.025 M HEPES, pH 7.6, 10 mM MgCl2, 2 mM DTT, 5 mg/ml poly Glu-Tyr, and 50 nM of recombinant human Lck kinase. Final concentrations of the components of the coupled enzyme system were 2.5 mM phosphoenolpyruvate, 200 μM NADH, 30 μg/ml pyruvate kinase and 10 μg/ml lactate dehydrogenase.
In a typical assay, all the reaction components with the exception of ATP were pre-mixed and aliquoted into assay plate wells. Inhibitors dissolved in DMSO were added to the wells to give a final DMSO concentration of 2.5%. The assay plate was incubated at 30° C. for 10 minutes before initiating the reaction with 150 μM ATP. The absorbance change at 340 nm with time, the rate of the reaction, was monitored on a molecular devices plate reader. The data of rate as a function of the inhibitor concentration was fitted to competitive inhibition kinetics model to get the Ki for the compound.

In assay [2] the target is T1, human Src kinase (Homo sapiens, UniProt P12931).
T1 construct: full length recombinant human Src kinase (from Upstate Biotechnology, cat. no. 14-117); purchased Upstate Biotechnology 14-117; host or cells: baculovirus-infected (insect) cells
In words: Src inhibition assay (radioactivity-based assay A or spectrophotometric assay B). It is filed as biochemical. Particulars: recombinant human Src, poly Glu-Tyr substrate; assay A or B not specified. How it is done: The compounds were evaluated as inhibitors of human Src kinase using either a radioactivity-based assay or spectrophotometric assay.
as §1, with “length recombinant human Src” for “length bovine thymus Lck”, “no. 14-117)” for “no. 14-106)”, “cells. Src” for “cells. Lck”, “components: 0.05” for “components: 0.025”, “20 minutes” for “20 min”
The ADP produced from ATP by the human recombinant Src kinase-catalyzed phosphorylation of poly Glu-Tyr substrate was quanitified using a coupled enzyme assay (Fox et al (1998) Protein Sci 7, 2249). In this assay one molecule of NADH is oxidised to NAD for every molecule of ADP produced in the kinase reaction. The disappearance of NADH can be conveniently followed at 340 nm.
The following were the final concentrations of the assay components: 0.025 M HEPES, pH 7.6, 10 mM MgCl2, 2 mM DTT, 0.25 mg/ml poly Glu-Tyr, and 25 nM of recombinant human Src kinase. Final concentrations of the components of the coupled enzyme system were 2.5 mM phosphoenolpyruvate, 200 μM NADH, 30 μg/ml pyruvate kinase and 10 μg/ml lactate dehydrogenase.
In a typical assay, all the reaction components with the exception of ATP were pre-mixed and aliquoted into assay plate wells. Inhibitors dissolved in DMSO were added to the wells to give a final DMSO concentration of 2.5%. The assay plate was incubated at 30° C. for 10 minutes before initiating the reaction with 100 μM ATP. The absorbance change at 340 nm with time, the rate of the reaction, was monitored on a molecular devices plate reader. The data of rate as a function of the inhibitor concentration was fitted to compettive inhibition kinetics model to get the Ki for the compound.

T1 sequence (P12931 whole entry): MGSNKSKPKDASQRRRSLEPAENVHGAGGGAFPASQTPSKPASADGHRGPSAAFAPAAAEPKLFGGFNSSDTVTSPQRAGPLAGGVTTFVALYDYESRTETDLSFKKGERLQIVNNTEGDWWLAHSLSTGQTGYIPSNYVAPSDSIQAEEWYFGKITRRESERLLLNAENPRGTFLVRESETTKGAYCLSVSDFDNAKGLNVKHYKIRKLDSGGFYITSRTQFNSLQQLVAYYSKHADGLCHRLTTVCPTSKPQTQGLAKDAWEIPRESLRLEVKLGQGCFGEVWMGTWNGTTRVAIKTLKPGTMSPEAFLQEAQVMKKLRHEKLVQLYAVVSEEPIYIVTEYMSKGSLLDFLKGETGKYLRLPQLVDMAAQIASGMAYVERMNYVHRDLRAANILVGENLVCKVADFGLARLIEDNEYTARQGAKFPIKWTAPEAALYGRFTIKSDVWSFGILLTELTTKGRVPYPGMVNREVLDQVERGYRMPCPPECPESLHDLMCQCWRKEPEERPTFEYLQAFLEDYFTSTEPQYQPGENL

A word on the Ki: it is the dissociation constant of the complex between target and ligand, obtained from inhibition or displacement. `Cc1onc(C2CCCCC2)c1-c1ccnc(Nc2cccc(OCCCN3CCCC(O)C3)c2)n1` (centres unmarked) [IIIa-13]: in assay [1], the Ki is less than 0.1 µM. `Cc1onc(C2CCCCC2)c1-c1ccnc(Nc2cccc(OCCN3CCC[C@H]3CO)c2)n1` [IIIa-7]: the Ki in assay [1] and in assay [2] was less than 0.1 µM each time. For `Cc1onc(C2CCCCC2)c1-c1ccnc(Nc2cccc(OCCN3CCOCC3)c2)n1` [IIIa-2], the Ki in assay [1] and in assay [2] was less than 0.1 µM each time. For the compound `Cc1onc(C2CCCCC2)c1-c1ccnc(Nc2cccc(OCCN3CCC(CO)CC3)c2)n1` [IIIa-6], the Ki in assay [1] and in assay [2] was less than 0.1 µM in each case. In the case of `Cc1onc(C2CCCCC2)c1-c1ccnc(Nc2cccc(OCCCN3CCNCC3)c2)n1` [IIIa-18], in assay [1], the Ki was less than 0.1 µM. Still for that read-out and setting: in the case of `Cc1onc(C2CCCCC2)c1-c1ccnc(Nc2cccc(OCCCCN3CCCC3)c2)n1` [IIIa-25] it was less than 0.1 µM; in that of `Cc1onc(C2CCCCC2)c1-c1ccnc(Nc2cccc(OCCCN3CCOCC3)c2)n1` [IIIa-15], less than 0.1 µM; in that of `COc1cc(Nc2ncc(CO)c(-c3c(C4CCCCC4)noc3C)n2)cc(OC)c1` [IIIb-25], greater than 1 µM. Same read-out and setting: next, `Cc1onc(C2CCCCC2)c1-c1ccnc(Nc2cccc(OCC3CCCN(C(=O)OC(C)(C)C)C3)c2)n1` (centres unmarked) [IIIa-30]: greater than 1 µM. On the same count and under the same terms, in the case of `Cc1onc(C2CCCCC2)c1-c1ccnc(Nc2cccc(OCC3CCCNC3)c2)n1` (centres unmarked) [IIIa-31] it was less than 0.1 µM. With `Cc1onc(C2CCCCC2)c1-c1ccnc(Nc2cccc(OCCOC3CCCCO3)c2)n1` (centres unmarked) [IIIa-1], the Ki in assay [1] and in assay [2] was less than 0.1 µM throughout.

Consider `Cc1onc(C2CCCCC2)c1-c1ccnc(Nc2cccc(OCCCN3CCN(CCO)CC3)c2)n1` [IIIa-12], for which the Ki in assay [1] is less than 0.1 µM. On the same count and under the same terms, next, `COc1cc(Nc2ncc(C(=O)O)c(-c3c(C4CCCCC4)noc3C)n2)cc(OC)c1` [IIIb-24]: greater than 1 µM; `Cc1onc(C2CCCCC2)c1-c1ccnc(Nc2cccc(OCCCN3CCC(O)CC3)c2)n1` [IIIa-9]: less than 0.1 µM; `COc1cc(Nc2ncc(C#N)c(-c3c(C4CCCCC4)noc3C)n2)cc(OC)c1` [IIIb-27]: 0.1 to 1 µM. As to `Cc1onc(C2CCCCC2)c1-c1ccnc(Nc2cccc(OCCCCN3CCN(CCO)CC3)c2)n1` [IIIa-22], the Ki in assay [1] was less than 0.1 µM.

For the compound `CCCOCc1cnc(Nc2cc(OC)cc(OC)c2)nc1-c1c(C2CCCCC2)noc1C` [IIIb-29], in assay [1], the Ki was less than 0.1 µM. In the case of `Cc1onc(C2CCCCC2)c1-c1ccnc(Nc2cccc(OCCN3CCCC3)c2)n1` [IIIa-3], the Ki in assay [1] and in assay [2] was less than 0.1 µM each time.

Take `Cc1onc(C2CCCCC2)c1-c1ccnc(Nc2cccc(OCCCN3CCCC3)c2)n1` [IIIa-16]: the Ki in assay [1] was less than 0.1 µM.

In the case of `Cc1onc(C2CCCCC2)c1-c1ccnc(Nc2cccc(OCCCCN3CCOCC3)c2)n1` [IIIa-24], in assay [1], the Ki was less than 0.1 µM. As for `Cc1onc(C2CCCCC2)c1-c1ccnc(Nc2cccc(OCCN3CCN(CCO)CC3)c2)n1` [IIIa-8], the Ki in assay [1] and in assay [2] was less than 0.1 µM in each case.

Consider `Cc1onc(C2CCCCC2)c1-c1ccnc(Nc2cccc(NC(=O)CCN3CCCCC3)c2)n1` [Va-1], for which the Ki in assay [1] and in assay [2] was less than 0.1 µM in each case.

Consider `Cc1onc(C2CCCCC2)c1-c1ccnc(Nc2cccc(OC3CCCN(C(=O)OC(C)(C)C)C3)c2)n1` (centres unmarked) [IIIa-28], for which the Ki in assay [1] was greater than 1 µM. On to `Cc1onc(C2CCCCC2)c1-c1ccnc(Nc2cccc(OCCN3CCC(O)CC3)c2)n1` [IIIa-5], for which the Ki in assay [1] and in assay [2] was less than 0.1 µM in each case. As to `CCc1onc(C2CCCCC2)c1-c1nc(Nc2cccc(O)c2)ncc1C` [IIIb-28], the Ki in assay [1] and in assay [2] was less than 0.1 µM in each case. For the compound `Cc1onc(C2CCCCC2)c1-c1ccnc(Nc2cccc(OCCCCN3CCC(O)CC3)c2)n1` [IIIa-19], the Ki in assay [1] was less than 0.1 µM. On the same count and under the same terms, in the case of `Cc1onc(C2CCCCC2)c1-c1ccnc(Nc2cccc(OCCCN3CCCCC3)c2)n1` [IIIa-17] it was less than 0.1 µM; in that of `Cc1onc(C2CCCCC2)c1-c1ccnc(Nc2cccc(OC3CCCNC3)c2)n1` (centres unmarked) [IIIa-29], less than 0.1 µM.

With `Cc1onc(C2CCCCC2)c1-c1ccnc(Nc2cccc(OCCCN3CCC(CO)CC3)c2)n1` [IIIa-10], the Ki in assay [1] was less than 0.1 µM. Turning to `CCN1CCN(CCCCOc2cccc(Nc3nccc(-c4c(C5CCCCC5)noc4C)n3)c2)CC1` [IIIa-23], the Ki in assay [1] was less than 0.1 µM.

Consider `COc1cc(Nc2ncc(C(N)=O)c(-c3c(C4CCCCC4)noc3C)n2)cc(OC)c1` [IIIb-26], for which, in assay [1], the inhibitory constant (Ki) was greater than 1 µM.

Turning to `Cc1onc(C2CCCCC2)c1-c1ccnc(Nc2cccc(OCCN3CCCCC3)c2)n1` [IIIa-4], the Ki in assay [1] and in assay [2] was less than 0.1 µM throughout. On to `Cc1onc(C2CCCCC2)c1-c1ccnc(Nc2cccc(OCCCCN3CCCCC3)c2)n1` [IIIa-26], for which the inhibition constant Ki in assay [1] is less than 0.1 µM. The same measure, in the same setting: in the case of `Cc1onc(C2CCCCC2)c1-c1ccnc(Nc2cccc(OCCCN3CCC[C@H]3CO)c2)n1` [IIIa-11] it was less than 0.1 µM.

For the origin of these results see patent publication US6689778B2, “Inhibitors of Src and Lck protein kinases” (Vertex Pharmaceuticals Incorporated, priority 2001, dated 2004).
